Measurements taken from ChEMBL document CHEMBL3774345, “Synthesis of new diarylamides with pyrimidinyl pyridine scaffold and evaluation of their anti-proliferative effect on cancer cell lines” (Bioorg Med Chem Lett, 2016).

Assays:
[1] = Cytotoxicity against human UO31 cells assessed as cell growth at 10^-8 M after 24 hrs by SRB assay; format: functional; settings: UO-31, 24 h, read-out: Activity
[2] = Cytotoxicity against human MOLT4 cells assessed as cell growth at 10^-7 M after 24 hrs by SRB assay; format: functional; settings: MOLT-4, 24 h, read-out: Activity
[3] = Cytotoxicity against human MOLT4 cells assessed as cell growth at 10^-4 M after 24 hrs by SRB assay; format: functional; settings: MOLT-4, 24 h, read-out: Activity
[4] = Cytotoxicity against human RPMI8226 cells assessed as cell growth at 10^-4 M after 24 hrs by SRB assay; format: functional; settings: RPMI-8226, 24 h, read-out: Activity
[5] = Cytotoxicity against human SNB19 cells assessed as cell growth at 10^-7 M after 24 hrs by SRB assay; format: functional; settings: SNB-19, 24 h, read-out: Activity
MDA-MB-435 = experiment: Cytotoxicity against human MDA-MB-435 cells assessed as cell growth at 10^-7 M after 24 hrs by SRB assay; format: functional; settings: MDA-MB-435, 24 h, read-out: Activity
[6] = Cytotoxicity against human UACC62 cells assessed as cell growth at 10^-7 M after 24 hrs by SRB assay; format: functional; settings: UACC-62, 24 h, read-out: Activity
[7] = Cytotoxicity against human SF539 cells after 24 hrs by SRB assay; format: functional, cell-based; settings: SF-539, 24 h
[8] = Cytotoxicity against human SNB75 cells after 24 hrs by SRB assay; format: functional, cell-based; settings: SNB-75, 24 h
[9] = Cytotoxicity against human COLO205 cells assessed as cell growth at 10^-4 M after 24 hrs by SRB assay; format: functional; settings: COLO 205, 24 h, read-out: Activity
[10] = Cytotoxicity against human LOXIMVI cells assessed as cell growth at 10^-4 M after 24 hrs by SRB assay; format: functional; settings: LOX IMVI, read-out: Activity
[11] = Cytotoxicity against human HL-60(TB) cells assessed as cell growth at 10^-6 M after 24 hrs by SRB assay; format: functional; settings: HL-60, 24 h, read-out: Activity
K562 = experiment: Cytotoxicity against human K562 cells assessed as cell growth at 10^-6 M after 24 hrs by SRB assay; format: functional; settings: K562, 24 h, read-out: Activity
NCI-H226 = experiment: Cytotoxicity against human NCI-H226 cells assessed as cell growth at 10^-6 M after 24 hrs by SRB assay; format: functional; settings: NCI-H226, 24 h, read-out: Activity
[12] = Cytotoxicity against human OVCAR3 cells assessed as cell growth at 10^-4 M after 24 hrs by SRB assay; format: functional; settings: OVCAR-3, 24 h, read-out: Activity
[13] = Cytotoxicity against human OVCAR4 cells assessed as cell growth at 10^-4 M after 24 hrs by SRB assay; format: functional; settings: OVCAR-4, 24 h, read-out: Activity
ACHN = experiment: Cytotoxicity against human ACHN cells assessed as cell growth at 10^-4 M after 24 hrs by SRB assay; format: functional; settings: read-out: Activity
[14] = Cytotoxicity against human Hs 578T cells assessed as cell growth at 10^-4 M after 24 hrs by SRB assay; format: functional; settings: read-out: Activity
[15] = Cytotoxicity against human HCT15 cells assessed as cell growth at 10^-6 M after 24 hrs by SRB assay; format: functional; settings: HCT-15, 24 h, read-out: Activity
[16] = Cytotoxicity against human SF539 cells assessed as cell growth at 10^-6 M after 24 hrs by SRB assay; format: functional; settings: SF-539, 24 h, read-out: Activity
[17] = Cytotoxicity against human LOXIMVI cells assessed as cell growth at 10^-6 M after 24 hrs by SRB assay; format: functional; settings: LOX IMVI, read-out: Activity
SK-MEL-28 = experiment: Cytotoxicity against human SK-MEL-28 cells assessed as cell growth at 10^-6 M after 24 hrs by SRB assay; format: functional; settings: SK-MEL-28, 24 h, read-out: Activity
[18] = Cytotoxicity against human OVCAR8 cells assessed as cell growth at 10^-6 M after 24 hrs by SRB assay; format: functional; settings: OVCAR-8, 24 h, read-out: Activity
MCF7 = experiment: Cytotoxicity against human MCF7 cells assessed as cell growth at 10^-6 M after 24 hrs by SRB assay; format: functional; settings: MCF7, 24 h, read-out: Activity
[19] = Cytotoxicity against human OVCAR5 cells after 24 hrs by SRB assay; format: functional; settings: OVCAR-5, 24 h
[20] = Cytotoxicity against human Caki1 cells after 24 hrs by SRB assay; format: functional; settings: CAKI-1, 24 h
NCI-H322M = experiment: Cytotoxicity against human NCI-H322M cells assessed as cell growth at 10^-8 M after 24 hrs by SRB assay; format: functional; settings: read-out: Activity
[21] = Cytotoxicity against human SNB75 cells assessed as cell growth at 10^-8 M after 24 hrs by SRB assay; format: functional; settings: SNB-75, 24 h, read-out: Activity
U-251 = experiment: Cytotoxicity against human U251 cells assessed as cell growth at 10^-8 M after 24 hrs by SRB assay; format: functional; settings: U-251, 24 h, read-out: Activity
Malme-3M [22] = experiment: Cytotoxicity against human MALME-3M cells assessed as cell growth at 10^-8 M after 24 hrs by SRB assay; format: functional; settings: read-out: Activity
SK-MEL-2 = experiment: Cytotoxicity against human SK-MEL-2 cells assessed as cell growth at 10^-8 M after 24 hrs by SRB assay; format: functional; settings: SK-MEL-2, 24 h, read-out: Activity
[23] = Cytotoxicity against human SF539 cells assessed as cell growth at 10^-5 M after 24 hrs by SRB assay; format: functional; settings: SF-539, 24 h, read-out: Activity
Malme-3M [24] = experiment: Cytotoxicity against human MALME-3M cells assessed as cell growth at 10^-5 M after 24 hrs by SRB assay; format: functional; settings: read-out: Activity
SK-MEL-5 = experiment: Cytotoxicity against human SK-MEL-5 cells assessed as cell growth at 10^-5 M after 24 hrs by SRB assay; format: functional; settings: SK-MEL-5, 24 h, read-out: Activity
SN12C = experiment: Cytotoxicity against human SN12C cells assessed as cell growth at 10^-5 M after 24 hrs by SRB assay; format: functional; settings: read-out: Activity
[25] = Cytotoxicity against human BT549 cells assessed as cell growth at 10^-5 M after 24 hrs by SRB assay; format: functional; settings: BT-549, 24 h, read-out: Activity
[26] = read-out: LC50 (the source's name)
[27] = read-out: pLC50 (the source's name) (converted)

`O=C(Nc1cc(-c2cccnc2)nc(NCCCN2CCOCC2)n1)c1cc(Br)cc(C(F)(F)F)c1` gave a growth at 0.01 µM [1] of 95%, a growth at 0.1 µM [2] of 95% and a growth at 100 µM [3] of -67%. For the same molecule, the growth at 100 µM [4] was -24%, the growth at 0.1 µM [5] was 98% and the growth at 0.1 µM (MDA-MB-435) was 92%. The growth at 0.1 µM [6] was 90%, the GI50 ([7]; read-out: GI50) was 1.67 µM and the CC50 [7, 26] was 7.2 µM. The TGI ([7]; read-out: TGI) was 3.47 µM, the GI50 ([7]; read-out: pGI50 (converted)) was 1.66 µM and the CC50 [7, 27] was 7.24 µM. For the same molecule, the TGI ([7]; read-out: pTGI (converted)) was 3.47 µM, the IC50 [8] was 1.52 µM and the GI50 ([8]; read-out: GI50) was 1.52 µM. The CC50 [8, 26] was 8.46 µM, the TGI ([8]; read-out: TGI) was 3.59 µM and the GI50 ([8]; read-out: pGI50 (converted)) was 1.51 µM. The CC50 [8, 27] was 8.51 µM, the TGI ([8]; read-out: pTGI (converted)) was 3.55 µM and the growth at 100 µM [9] was -88%. It also gave a growth at 100 µM [10] of -93%, a growth at 1 µM [11] of 88% and a growth at 1 µM (K562) of 88%. The growth at 1 µM (NCI-H226) was 84%, the growth at 100 µM [12] was -100% and the growth at 100 µM [13] was -95%. For the same molecule, the growth at 100 µM (ACHN) was -79%, the growth at 100 µM [14] was -35% and the growth at 1 µM [15] was 82%. The growth at 1 µM [16] was 85%, the growth at 1 µM [17] was 88% and the growth at 1 µM (SK-MEL-28) was 89%. The growth at 1 µM [18] was 102%, the growth at 1 µM (MCF7) was 77% and the GI50 ([19]; read-out: GI50) was 6.33 µM. For the same molecule, the CC50 [19, 26] was 69.1 µM, the TGI ([19]; read-out: TGI) was 23.5 µM and the GI50 ([19]; read-out: pGI50 (converted)) was 6.31 µM. The CC50 [19, 27] was 69.2 µM, the TGI ([19]; read-out: pTGI (converted)) was 23.4 µM and the GI50 ([20]; read-out: GI50) was 2.53 µM. The CC50 [20, 26] was 32.8 µM, the TGI ([20]; read-out: TGI) was 10.7 µM and the GI50 ([20]; read-out: pGI50 (converted)) was 2.51 µM. For the same molecule, the CC50 [20, 27] was 33.1 µM, the TGI ([20]; read-out: pTGI (converted)) was 10.7 µM and the growth at 0.01 µM (NCI-H322M) was 98%. The growth at 0.01 µM [21] was 88%, the growth at 0.01 µM (U-251) was 97% and the growth at 0.01 µM (Malme-3M [22]) was 99%. For the same molecule, the growth at 0.01 µM (SK-MEL-2) was 109%, the growth at 10 µM [23] was -73% and the growth at 10 µM (Malme-3M [24]) was -72%. The growth at 10 µM (SK-MEL-5) was -98%, the growth at 10 µM (SN12C) was 44% and the growth at 10 µM [25] was 19%.
